The values below are quoted from earlier work in patent publication US20060035317A1, “Effect of treatment with 4,5-dihydroxy-2-cyclopenten-1-one (dhcp) on gene expression and quorum-sensing in bacteria” (priority 2002, published 2006).

Read-outs that look alike come from different tables or passages of the source.

The subject of the series is E. coli (gene expression). Particulars: Wang et al., 2001, cited from earlier work.

As to `c1ccc2[nH]ccc2c1` [indole], the “Induction of gene by indole” value is listed as “induces” (gene cysK) and “not” (gene gabT).
